Results taken from patent US12173088B2, “Anti-microbial peptides” (priority 2018, dated 2024).
≈ marks a conversion by molar mass, not a printed value. Where two headings read alike, the source gives them in different places. Square brackets hold non-standard residues; d marks the D form. Peptide text beside a SMILES is read from it.

What was measured:
[1] = system: E. coli ATCC 25922; assay type: cell-based, Escherichia coli; details: ATCC 25922
In short: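 Peptides, serially diluted two-fold, were incubated overnight at 37 °C with E. coli ATCC 25922 from log-phase cultures adjusted to OD600 0.001. Turbidity at 630 nm served as the read-out in this broth microdilution format.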

[2] = system: P. aeruginosa PAO1; assay type: cell-based, Pseudomonas aeruginosa; details: PAO1
In short: (§1)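 Broth microdilution in tryptic soy broth: log-phase cultures (OD600 ≈0.5) diluted to OD600 0.001, given two-fold peptide dilutions, incubated overnight at 37° C. Growth read at 630 nm.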

[3] = Hemolytic assay; assay type: cell-based, human; details: human, human red blood cells, 2% (v/v)
In short: (§2)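 HL50 marks the peptide level lysing half of a 2% (v/v) suspension of washed human erythrocytes after 1 h at 37 °C. Released hemoglobin measured at 545 nm, scaled between PBS (0%) and Triton X-100 (2% or 1%; 100%). Selectivity index computed as HL50 over MIC.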

[4] = system: E. coli E423-17; assay: microbe, parasite or virus in culture; assay type: cell-based, Escherichia coli; details: E423-17; read-out: MIC E. coli E423-17
Text: (§3) The bacterial strains used include the Gram-positive strains Staphylococcus aureus USA300 LAC, S. epidermidis 1457, and Bacillus subtilis 168, as well as the Gram-negative isolates Escherichia coli K12 and Acinetobacter baumannii B2367-12. Additional, drug resistance strains include Gram-positive Enterococcus faecium V286-17 (VRE) and S. aureus M838-17 (MRSA) and Gram-negative E. coli E423-17, E. coli E416-17 (ampC), and P. aeruginosa E411-17. Bacteria were cultivated in tryptic soy broth (TSB) (BD Bioscience, MD).
(§4) The antibacterial activity of peptides was evaluated using a standard broth microdilution protocol with minor modifications as described (Mishra, et al. (2012) J. Am. Chem. Soc., 134:12426-12429). In brief, logarithmic phase bacterial cultures (i.e., optical density at 600 nm≈0.5) were diluted to OD600 0.001 and partitioned into a 96-well polystyrene microplate at 90 μL per well. After treatment with 10 μL of peptide solutions two fold diluted to various concentrations, microplates were incubated at 37° C. overnight and read on a ChroMate® 4300 Microplate Reader at 630 nm (GMI, Ramsey, MN). […] To study the influence of medium conditions on the antimicrobial activity of peptides against S. aureus USA300, up to 200 mM sodium chloride (NaCl), 2 mM of calcium chloride, 5-10% of human serum, mouse plasma, fluid, or supernatants of tissue homogenates were included into the assays.
(§5) The bacterial strains used include the Gram-positive bacteria methicillin-resistant Staphylococcus aureus USA300, Enterococcus faecium V286-17 (VRE), S. aureus M838-17 (MRSA) and Gram-negative bacteria E. coli E423-17, E416-7 (ampC), P. aeruginosa E411-17, PA01, K. pneumoniae E406-17, ATCC13883, and A. baumannii B26-16. Bacteria were cultivated in tryptic soy broth (TSB) from BD Bioscience.
(§6) The antibacterial activity of peptides was evaluated using a standard broth microdilution protocol with minor modifications (Mishra, et al. (2017) Acta Biomater., 49:316-328). In brief, logarithmic phase bacterial cultures (i.e., optical density at 600 nm≈0.5) were diluted to 0.001 OD and aliquoted 90 μL per well into a 96-well polystyrene microplate. Added 10 μL peptides per well with various concentrations, plates were incubated at 37° C., overnight. Post incubation the plates are read at 630 nm using a ChroMate® Microplate Reader (GMI). […] To study the influence of medium conditions on the antimicrobial activity of peptides against S. aureus USA300 at different pHs (6.8, 7.2, and 8.0), 150 mM sodium chloride (NaCl), 5-10% of human serum, mouse plasma, and peritoneal fluid were included into the assays.

[5] = system: E. faecium V286-17 (VRE); assay: microbe, parasite or virus in culture; assay type: cell-based, Enterococcus faecium; details: V286-17 (VRE); for MIC: read-out: MIC E. faecium V286-17 (VRE)
Text: as §3, §4, §5, §6

[6] = system: S. aureus USA300; assay: microbe, parasite or virus in culture; assay type: cell-based, Staphylococcus aureus
In short: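 Broth microdilution: log-phase cultures in tryptic soy broth diluted to OD600 0.001, exposed to two-fold diluted peptides at 37° C overnight, growth read at 630 nm. Medium effects on S. aureus USA300 tested with up to 200 mM NaCl, 2 mM CaCl2, 5-10% human serum, mouse plasma, fluids or tissue homogenate supernatants.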

[7] = system: S. aureus M838-17 (MRSA); assay: microbe, parasite or virus in culture; assay type: cell-based, Staphylococcus aureus; details: M838-17; for MIC: read-out: MIC S. aureus M838-17 (MRSA)
In short: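 Peptides were serially diluted two-fold against bacteria grown in tryptic soy broth to log phase (OD600 ≈0.5), then seeded at OD600 0.001. Plates were held overnight at 37° C and read at 630 nm. USA300 was also tested at pH 6.8, 7.2 and 8.0, with 150 mM NaCl or 5-10% serum, plasma or peritoneal fluid.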

[8] = system: P. aeruginosa E411-17; assay: microbe, parasite or virus in culture; assay type: cell-based, Pseudomonas aeruginosa; details: E411-17; for MIC: read-out: MIC P. aeruginosa E411-17
Text: as §3, §4, §5, §6

[9] = system: E. coli ampC E416-7; assay type: cell-based, Escherichia coli; details: Table 7
Text: as §3, §4

[10] = system: K. pneumoniae E406-17; assay: microbe, parasite or virus in culture; assay type: cell-based, Klebsiella pneumoniae; details: E406-17; for MIC: read-out: MIC K. pneumoniae E406-17
Description: as §4, §5, §6

[11] = system: human red blood cells (hRBCs); assay: Hemolytic assay; assay type: cell-based
In short: as §2

[12] = in vivo; details: BALB/c, mouse, plasma, iv, 10 mg/kg
Description: The efficacy of the two peptides was also investigated in non-neutropenic mice against S. aureus USA300. A higher bacterial inoculum at 2×10^8 CFU per mouse was used. […] To evaluate the peptide pharmacokinetics (Chhonker, et al. (2018) Biomed. Chromatogr. e4389), the plasma clearance rate of horine after intravenous injection of 10 mg/kg into BALB/c mice was followed.

[13] = system: A. baumannii B26-16; assay: microbe, parasite or virus in culture; assay type: cell-based, Acinetobacter baumannii; details: B26-16; read-out: MIC A. baumannii B26-16
Description: as §5, §6

[14] = system: K. pneumoniae ATCC 13883; assay type: cell-based, Klebsiella pneumoniae; details: ATCC 13883
In short: as §1

[15] = USA300, read-out: MIC S. aureus USA300 (MRSA)

Row | SMILES | MIC EC (E. coli ATCC 25922) [1] | MIC PA (P. aeruginosa PAO1) [2] | HC50 at 1 h [3] | MIC [4] | MIC E. faecium V286-17 (VRE) [5] | MIC ([6]; 1 mM Ca2+) | MIC ([6]; 2 mM Ca2+) | MIC ([6]; 50 mM NaCl) | MIC ([6]; 100 mM NaCl) | MIC ([6]; No salts added, Table 6, by UV) | MIC ([6]; USA300) | MIC SA (S. aureus USA300) ([6]; USA300) | MIC ([6]; USA300, pH 6.8) | MIC ([6]; USA300, pH 7.4) | MIC ([6]; USA300, pH 8) | MIC [7] | MIC [8] | MIC E. coli ampC E416-7 [9] | MIC [10] | MIC [13] | other results
1 | CC(C)C[C@@H](NC(=O)[C@@H](CC(C)C)NC(=O)[C@@H](CCCCN)NC(=O)[C@@H](CC(C)C)NC(=O)CNC(=O)[C@@H](CC(C)C)NC(=O)[C@@H](CO)NC(=O)[C@@H](CC(C)C)NC(=O)[C@@H](CC(C)C)NC(=O)[C@@H](CC(C)C)NC(=O)[C@@H](CO)NC(=O)[C@@H](CC(C)C)NC(=O)CN)C(N)=O [DFT503d, GLSLLLSLGLKLL] (H-G[dL][dS][dL][dL][dL][dS][dL]G[dL][dK][dL][dL]-NH2; N-terminus and C-terminus assumed) | >25 µM | >25 µM | > 300 µM | >50 µM | 3.1 to 6.25 µM | 1.56 µM (≈ 2.09 µg/mL) | 1.56 µM (≈ 2.09 µg/mL) | 1.56 µM (≈ 2.09 µg/mL) | 1.56 µM (≈ 2.09 µg/mL) | 1.56 µM | 3.1 µM (≈ 4.15 µg/mL) | 1.6 µM (≈ 2.14 µg/mL) | 3.1 µM (≈ 4.15 µg/mL) | 3.1 µM (≈ 4.15 µg/mL) | 1.6 µM (≈ 2.14 µg/mL) | 3.1 µM (≈ 4.15 µg/mL) | >50 µM | >50 µM | >50 µM |  | MIC ([6]; 200 mM NaCl): 1.56 µM (≈ 2.09 µg/mL)
2 | CC(C)C[C@H](NC(=O)[C@H](CC(C)C)NC(=O)[C@H](CCCCN)NC(=O)[C@H](CC(C)C)NC(=O)CNC(=O)[C@H](CC(C)C)NC(=O)[C@H](CO)NC(=O)[C@H](CC(C)C)NC(=O)[C@H](CC(C)C)NC(=O)[C@H](CC(C)C)NC(=O)[C@H](CO)NC(=O)[C@H](CC(C)C)NC(=O)CN)C(N)=O [DFT503, GLSLLLSLGLKLL] (H-GLSLLLSLGLKLL-NH2; N-terminus and C-terminus assumed) | >25 µM | >25 µM | > 300 µM | >50 µM | 3.1 to 6.25 µM | 1.56 µM (≈ 2.09 µg/mL) | 1.56 µM (≈ 2.09 µg/mL) | 1.56 to 3.1 µM | 1.56 to 3.1 µM | 1.56 µM | 3.1 µM (≈ 4.15 µg/mL) | 1.6 µM (≈ 2.14 µg/mL) | 3.1 µM (≈ 4.15 µg/mL) | 3.1 to 6.2 µM | 3.1 µM (≈ 4.15 µg/mL) | 3.1 µM (≈ 4.15 µg/mL) | >50 µM | >50 µM | >50 µM |  | HL50, peptide concentration for 50% hemolysis [11]: >300 µM
3 | CC(C)C[C@@H](NC(=O)[C@@H](Cc1c[nH]c2ccccc12)NC(=O)[C@@H](Cc1c[nH]c2ccccc12)NC(=O)[C@H](N)Cc1c[nH]c2ccccc12)C(=O)N[C@H](CCCNC(=N)N)C(=O)N[C@H](CCCNC(=N)N)C(=O)N[C@H](CCCNC(=N)N)C(=O)N[C@H](Cc1c[nH]c2ccccc12)C(N)=O [D-horine] (H-[dW][dW][dW][dL][dR][dR][dR][dW]-NH2; N-terminus and C-terminus assumed) |  |  |  | 16 µM (≈ 21.5 µg/mL) |  |  |  |  |  |  |  |  |  |  |  |  | 32 µM (≈ 43 µg/mL) |  | >32 µM | >32 µM | level at 5 min [12]: 192 µg/mL; level at 24 h [12]: 0.17 µg/mL; MIC [5]: 4 µM (≈ 5.37 µg/mL); MIC [6, 15]: 4 µM (≈ 5.37 µg/mL)
4 | CC[C@H](C)[C@H](NC(=O)[C@H](CCCCN)NC(=O)[C@@H](N)CCCNC(=N)N)C(=O)N[C@@H](Cc1c[nH]c2ccccc12)C(=O)N[C@@H](Cc1c[nH]c2ccccc12)C(=O)N[C@@H](Cc1c[nH]c2ccccc12)C(=O)N[C@@H](Cc1c[nH]c2ccccc12)C(=O)N[C@@H](CC(C)C)C(N)=O [WW295, RKIWWWWL] (H-RKIWWWWL-NH2; N-terminus and C-terminus assumed) |  |  | 57 µM | 8 µM (≈ 10.2 µg/mL) |  |  |  |  |  |  |  |  |  |  |  |  | 32 µM (≈ 40.7 µg/mL) |  | 16 µM (≈ 20.4 µg/mL) | 8 µM (≈ 10.2 µg/mL) | MIC E. coli ATCC 25922 [1]: 6.2 µM (≈ 7.89 µg/mL); MIC [5]: 4 µM (≈ 5.09 µg/mL); MIC S. aureus USA 300 ([6]; USA300): 3.1 to 6.2 µM; MIC [6, 15]: 4 µM (≈ 5.09 µg/mL); MIC S. aureus M838-17 [7]: 6.2 to 12.5 µM; MIC K. pneumoniae ATCC 13883 [14]: 3.1 to 6.2 µM; MIC P. aeruginosa 411-17 [8]: >50 µM; MIC K. pneumonia 406-17 [10]: 12.5 µM (≈ 15.9 µg/mL)
